Measured values from ChEMBL document CHEMBL4308908, “Lamellarin-inspired potent topoisomerase I inhibitors with the unprecedented benzo[g][1]benzopyrano[4,3-b]indol-6(13H)-one scaffold” (Bioorg Med Chem, 2019).
Calls of active or inactive are those of the source. No cut-off for these calls is given here.

Assays:
[1] = tested on: U-251; test: Antiproliferative activity against human U251 cells after 48 hrs by SRB assay; assay type: functional; conditions: U-251, 48 h, read-out: GI50
[2] = tested on: LOX IMVI; test: Antiproliferative activity against human LOXIMVI cells after 48 hrs by SRB assay; assay type: functional; conditions: read-out: GI50
[3] = tested on: MCF7; test: Antiproliferative activity against human MCF7 cells after 48 hrs by SRB assay; assay type: functional; conditions: MCF7, 48 h, read-out: GI50
[4] = tested on: SK-OV-3; test: Antiproliferative activity against human SKOV3 cells after 48 hrs by SRB assay; assay type: functional; conditions: SK-OV-3, 48 h, read-out: GI50
[5] = tested on: MKN-28; test: Antiproliferative activity against human MKN28 cells after 48 hrs by SRB assay; assay type: functional; conditions: MKN-28, 48 h, read-out: GI50
[6] = tested on: HCT-116; test: Antiproliferative activity against human HCT116 cells after 48 hrs by SRB assay; assay type: functional; conditions: HCT-116, 48 h, read-out: GI50
[7] = tested on: DU-145; test: Antiproliferative activity against human DU145 cells after 48 hrs by SRB assay; assay type: functional; conditions: DU-145, 48 h, read-out: GI50
[8] = tested on: NCI-H522; test: Antiproliferative activity against human NCI-H522 cells after 48 hrs by SRB assay; assay type: functional; conditions: NCI-H522, 48 h, read-out: GI50
[9] = tested on: ACHN; test: Antiproliferative activity against human ACHN cells after 48 hrs by SRB assay; assay type: functional; conditions: read-out: GI50
[10] = tested on: Colon 26; test: Antitumor activity against mouse Colon 26 cells implanted in BALB/c mouse at 50 mg/kg, iv administered every 2 days for 7 times starting 1 day after tumor implantation and measured daily until day 20; assay type: functional, organism-based
[11] = biological target: T1, DNA topoisomerase I (Bos taurus) (UniProt F1MN93); test: Inhibition of calf thymus DNA topoisomerase 1 assessed as reduction in enzyme-mediated relaxation of supercoiled pBR322 plasmid DNA at 10 uM after 30 mins by agarose gel electrophoresis
T1 sequence (whole entry): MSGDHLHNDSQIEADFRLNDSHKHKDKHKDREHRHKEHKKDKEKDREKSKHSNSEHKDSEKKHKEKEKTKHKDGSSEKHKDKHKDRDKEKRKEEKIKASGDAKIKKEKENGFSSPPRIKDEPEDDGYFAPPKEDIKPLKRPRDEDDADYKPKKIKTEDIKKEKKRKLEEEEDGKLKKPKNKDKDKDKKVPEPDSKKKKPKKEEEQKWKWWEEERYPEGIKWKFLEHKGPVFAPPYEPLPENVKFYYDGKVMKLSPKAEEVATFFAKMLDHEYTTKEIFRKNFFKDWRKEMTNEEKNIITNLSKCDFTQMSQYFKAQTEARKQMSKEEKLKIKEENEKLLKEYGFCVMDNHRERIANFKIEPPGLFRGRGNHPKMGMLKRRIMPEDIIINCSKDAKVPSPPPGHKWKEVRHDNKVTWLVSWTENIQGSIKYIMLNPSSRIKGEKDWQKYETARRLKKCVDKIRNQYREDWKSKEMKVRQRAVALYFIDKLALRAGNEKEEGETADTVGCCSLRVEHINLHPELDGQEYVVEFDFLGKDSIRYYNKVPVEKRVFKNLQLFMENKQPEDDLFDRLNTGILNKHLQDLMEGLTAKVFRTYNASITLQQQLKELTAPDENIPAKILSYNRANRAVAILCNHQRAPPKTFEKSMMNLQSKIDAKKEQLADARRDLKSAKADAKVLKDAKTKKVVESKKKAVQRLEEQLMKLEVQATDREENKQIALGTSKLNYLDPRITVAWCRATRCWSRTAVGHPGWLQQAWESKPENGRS

[12] = biological target: T1, DNA topoisomerase I (Bos taurus); test: Inhibition of calf thymus DNA topoisomerase 1 assessed as reduction in enzyme-mediated relaxation of supercoiled pBR322 plasmid DNA at 10 uM after 30 mins by ethidium bromide staining-based agarose gel electrophoresis

SMILES | GI50 [1] | GI50 [2] | GI50 [3] | GI50 [4] | GI50 [5] | GI50 [6] | GI50 [7] | GI50 [8] | GI50 [9] | Activity [10] | inhibition [11] | inhibition [12]
C#CCn1c2c3cc(OC)c(O)cc3ccc2c2c(=O)oc3cc(O)c(OC)cc3c21 | < 10 nM | < 10 nM | 18 nM | 56 nM | 66 nM | 34 nM | 27 nM | < 10 nM | < 10 nM |  |  | 
COc1cc2c(cc1O)oc(=O)c1c2c(CN(C)C)c2c3cc(OC)c(O)cc3ccn21 | 100 nM | 180 nM | 55 nM | 1600 nM | 2300 nM | 310 nM | 110 nM | 82 nM | 44 nM |  |  | 
COc1cc2c(cc1O)oc(=O)c1c2cc2c3cc(OC)c(O)cc3ccn21 | 27 nM | 20 nM | 76 nM | 83 nM | 84 nM | 33 nM | 20 nM | < 10 nM | 14 nM |  |  | 
CCc1c2c(nc3ccc(OC(=O)N4CCC(N5CCCCC5)CC4)cc13)-c1cc3c(c(=O)n1C2)COC(=O)[C@]3(O)CC |  |  |  |  |  |  |  |  |  | Active |  | 
COc1cc2c(cc1O)oc(=O)c1c2c(C=O)c2c3cc(OC)c(O)cc3ccn21 | 29 nM | 35 nM | 37 nM | 230 nM | 230 nM | 78 nM | 28 nM | 21 nM | 26 nM |  |  | 
COc1cc2c(cc1O)oc(=O)c1c2c(Br)c2c3cc(OC)c(O)cc3ccn21 | 29 nM | 25 nM | 41 nM | 500 nM | 560 nM | 67 nM | 28 nM | 14 nM | 15 nM |  |  | 
COc1cc2c(cc1O)oc(=O)c1c2c(Cl)c2c3cc(OC)c(O)cc3ccn21 | < 10 nM | < 10 nM | 13 nM | 250 nM | 130 nM | 37 nM | < 10 nM | < 10 nM | < 10 nM |  |  | 
COc1cc2c(cc1O)oc(=O)c1c2c(C)c2c3cc(OC)c(O)cc3ccn21 | 9.1 nM | 5.5 nM | 110 nM | 38 nM | 64 nM | 33 nM | 4.7 nM | 4.7 nM | 3.8 nM |  |  | 
CC[C@@]1(O)C(=O)OCc2c1cc1n(c2=O)Cc2cc3ccccc3nc2-1 |  |  |  |  |  |  |  |  |  |  | Active | Active
COc1cc2c(ccc3c2[nH]c2c4cc(OC)c(O)cc4oc(=O)c32)cc1O | < 10 nM | 21 nM | 68 nM | 330 nM | 1600 nM | 88 nM | 51 nM | < 10 nM | 110 nM |  | Active | Active
COc1cc2c(cc1O)oc(=O)c1c2c(F)c2c3cc(OC)c(O)cc3ccn21 | 71 nM | 24 nM | 110 nM | 470 nM | 360 nM | 120 nM | 24 nM | < 10 nM | 28 nM |  |  | 
CCc1c2c(nc3ccc(O)cc13)-c1cc3c(c(=O)n1C2)COC(=O)[C@]3(O)CC [7-ETHYL-10-HYDROXYCAMPTOTHECIN] | 2.8 nM | 5.3 nM | 3 nM | 23 nM | 110 nM | 23 nM | 4.3 nM | 3.7 nM | 5.9 nM |  |  | 
C=CCn1c2c3cc(OC)c(O)cc3ccc2c2c(=O)oc3cc(O)c(OC)cc3c21 | 7.6 nM | 6.4 nM | 14 nM | 29 nM | 82 nM | 25 nM | 6.5 nM | 9.5 nM | 4.2 nM |  |  | 
CCn1c2c3cc(OC)c(O)cc3ccc2c2c(=O)oc3cc(O)c(OC)cc3c21 | < 10 nM | < 10 nM | < 10 nM | < 10 nM | < 10 nM | < 10 nM | < 10 nM | < 10 nM | < 10 nM |  |  | 
COc1cc2c(ccc3c4c(=O)oc5cc(O)c(OC)cc5c4n(CCN(C)C)c23)cc1O | 4 nM | 2.7 nM | 2.6 nM | 26 nM | 67 nM | 9.7 nM | 2 nM | 3.9 nM | 1.9 nM |  | Active | Active
COc1cc(-c2c3c4cc(OC)c(O)cc4oc(=O)c3n3ccc4cc(O)c(OC)cc4c23)ccc1O [LAMELLARIN D] | < 10 nM | < 10 nM | < 10 nM | 38 nM | 50 nM | < 10 nM | < 10 nM | < 10 nM | < 10 nM |  | Active | Active
